The text below walks through data of US5747544A, “Method of using pure 3R-3'R stereoisomer of zeaxanthin to treat or prevent retinal degeneration in humans” (priority 1995, dated 1998).

SMILES strings stand for the structures.

For one series, the system named is retina. As to conditions: in vivo; cited from earlier work.
A further series has as its system macular degeneration. As to conditions: general anti-oxidants; cited from earlier work.
A short description of the next series: physchem. As to conditions: dry powder.
Series [1] concerns animals such as birds or fish. The experiment in a line: Feeding of F. multivorum cell paste to animals such as birds or fish. Format: in vivo. As to conditions: oral, cell paste of F. multivorum cells. The source says: Although this option has not yet been fully evaluated, it is possible that the Flavobacterium multivorum cells themselves, in intact form and possibly even in a viable state, may be suitable for direct ingestion by humans. A substantial number of human foods (including cheese, yogurt, beer, etc.) contain viable or killed-but-intact microbial cells, and there is no known pathogenicity associated with the F. multivorum cells isolated by Applied Food Biotechnology, Inc. They were isolated from a relatively cold artesian waterway, and since they are adapted to living in cold water, they cannot survive or reproduce well at temperatures inside the human body. […] When fed directly in the form of a cell paste to animals such as birds or fish, these cells appear to be well-suited as delivery vehicles for zeaxanthin.

In the next series the test system is chickens. As to conditions: cited from earlier work.
The conditions of series [2]: di Mascio et al 1989; among known carotenoids; cited from earlier work.

Source text for physchem: After roughly six months of storage in a relatively unprotected state (usually under normal refrigeration with moderately frequent removal; without containing any antioxidants, and without taking any precautions to prevent contact by atmospheric oxygen), a sample of the zeaxanthin preparation was sent for stereoisomeric analysis to Prof.

As for `CC1=C(/C=C/C(C)=C/C=C/C(C)=C/C=C/C=C(C)/C=C/C=C(C)/C=C/C2=C(C)C(=O)CCC2(C)C)C(C)(C)CCC1=O` [Canthaxanthin], in the series on retina, the retinal toxicity result was “has been shown to cause retinal maculopathy”.

`CC1=C(/C=C/C(C)=C/C=C/C(C)=C/CO)C(C)(C)CCC1` [Retinol (Vit. A), Retinol]: in the series on macular degeneration, the “benefit in the retina against macular degeneration” value (“benefit in the retina” below) was “very limited”.

As for `CC1=C(/C=C/C(C)=C/C=C/C(C)=C/C=C/C=C(C)/C=C/C=C(C)/C=C/C2=C(C)C[C@@H](O)CC2(C)C)C(C)(C)C[C@H](O)C1` [Zeaxanthin, 3,3'-dihydroxy-β-β-carotene], the fraction remaining (as a rule, what is left of the initial amount, in per cent) at 4380 h in “physchem” was 92%. For the same molecule, in series [1], the “absorption and tissue deposition of zeaxanthin” value was “absorbed into the bloodstream and deposited into various tissues at expected and appropriate tissue locations”. Also, the coloration of chickens entry in the series on chickens (Flavobacter cells (ATCC 21081, 21588) with their zeaxanthin fed, U.S. Pat. No. 3,891,504) is “caused suitable coloration”. For the same molecule, in the series with chickens (per-weight basis, chicken skin and egg yolks), the “coloring potency relative to lutein” value is recorded as 2-3 times. Moreover, in the series on chickens (per-weight basis), the “effectiveness in imparting color to animal flesh or chicken yolks relative to lutein” value is reported as “several times more effective”.

`Cc1c(C)c2c(c(C)c1O)CCC(C)(CCCC(C)CCCC(C)CCCC(C)C)O2` (stereo not drawn) [alpha-Tocopherol]: in the series on macular degeneration, the “benefit in the retina” value is given as “very limited”.

As for `CC(C)=CCC/C(C)=C/C=C/C(C)=C/C=C/C(C)=C/C=C/C=C(C)/C=C/C=C(C)/C=C/C=C(\C)CCC=C(C)C` [lycopene], the singlet oxygen quenching entry in series [2] is reported as “best singlet oxygen quencher of all known carotenoids”.

For the molecule `CC1=C(/C=C/C(C)=C/C=C/C(C)=C/C=C/C=C(C)/C=C/C=C(C)/C=C/C2=C(C)CCCC2(C)C)C(C)(C)CCC1` [β-Carotene, β-carotene], the “benefit in the retina” value with macular degeneration is given as “very limited”.
